In article PMC7026885, “Macrofilaricidal Benzimidazole–Benzoxaborole Hybrids as an Approach to the Treatment of River Blindness: Part 1. Amide Linked Analogs” (ACS Infectious Diseases, 2019):

Tests used:
Litomosoides sigmodontis = Litomosoides sigmodontis natural infection in vivo model; settings: L. sigmodontis, necropsy day 63, QD
Procedure: We characterized the in vitro ADME properties of 8a in preparation for evaluation of this compound in our primary in vivo model in gerbils. […] We were pleased to find that 8a was able to kill 100% of both male and female worms in the gerbil peritoneum when dosed subcutaneously at 100 mg/kg/day for 14 days as a suspension in a nonsolubilizing HEC/Tween vehicle. […] The subsequent assessment of the pharmacokinetics of 8a from these two dosing paradigms provided an interesting observation that we believe to be important in understanding the PK–PD requirements for achieving efficacy in this animal model. […] We had made the same observation in a positive control group using flubendazole at a subcutaneous dose of 10 mg/kg/day for 5 days in the nonsolubilizing HEC/Tween vehicle, namely, that plasma levels of flubendazole were maintained above the in vitro IC50 (4 nM) for over 42 days, consistent with data reported in the literature.[43] […] We next examined 8a in two additional in vivo models, the first where L3 B. pahangi larvae were injected into the peritoneum of gerbils and allowed to develop into adult worms[45] and a second where gerbils were naturally infected by the filarial nematode Litomosoides sigmodontis.[46],[47] In both of these models, 8a was administered subcutaneously at 100 mg/kg for 14 days or orally at 100 mg/kg for 28 days as a suspension. […] Additionally, when plasma obtained from treated animals at necropsy was analyzed for 8a, we observed an outcome similar to that observed in the adult implantation model, e.g., that measurable levels were present at this time point in the subcutaneous-dosed groups but not in the orally dosed groups, weeks after administration of the drug. In a final L. sigmodontis experiment with 8a, we dosed the compound subcutaneously at 300 mg/kg for 7 days as a suspension. […]
administered their doses at the same time each day and are allowed to feed and drink ad libitum. Gerbils were euthanized following approved institutional protocols. Euthanized animals were weighed and examined for external and visceral pathologies.
The adult Brugia worms were recovered by opening the body cavity and washing the peritoneal cavity with 100 mL of phosphate buffered saline. Male and female worms were counted using a
Litomosoides sigmodontis natural infection in vivo model
All animal experiments with L. sigmodontis were conducted at the Institute for Medical Microbiology, Immunology and Parasitology
(IMMIP), University Hospital of Bonn, in accordance to the European Union animal welfare guidelines. All protocols were approved by the local authorities (Landesamt für Natur, Umwelt […]
from Janvier (Saint-Berthevin, France) and were housed at the animal facility of the IMMIP in individually ventilated cages on a 12h light/dark cycle with food and water ad libidum. Mice were infected at 6-8 weeks of age via exposure to the natural mite vector Ornithonyssus bacoti containing infectious L. sigmodontis
L3 larvae. To compare the infection, the same batch of mite-containing bedding was used to infect all animals of one experiment. 35 days post infection, a time point adult worms have developed within the thoracic cavity, mice were treated per oral gavage with the test compounds at concentrations indicated in the result section. As a vehicle, 1% CMC + 0.1% Tween80 was used. Negative controls were treated with vehicle and as positive control, mice were treated orally with doxycycline
(Sigma) in 10% DMSO/1xPBS. Necropsies were performed at 64-77

[1] = system: Onchocerca volvulus L3 larvae; test: Onchocerca volvulus L3 larval molting assay; assay type: cell-based; settings: L3 molting assay, Table 1, read-out: O. volvulus IC50
Procedure: (§1) The first three analogs from the benzimidazole 5-carboxylic acid, namely 7a (from 6-aminobenzoxaborole), 8a (from 6-aminomethyl-3,3-dimethylbenzoxaborole), and 8b (from 3-aminomethylbenzoxaborole), were prepared and tested in an Onchocerca volvulus L3 larval molting assay[34],[35] and a mammalian G2/M arrest assay[36] to evaluate antifilarial activity and selectivity, respectively (Table 1). O. volvulus is the causative agent of river blindness, and the L3 molting assay is the only widely available and reproducible assay of this filariid, the target of novel macrofilaricidal drugs.[34],[35] Other animal models (e.g., Brugia in gerbils) recapitulate aspects of lymphatic filariasis and are also used as surrogate screens for O. volvulus infections. Of the three compounds tested, 8a emerged as the most attractive compound on the basis of potency and selectivity.
Plates were incubated at 37 °C in a 5% CO2 incubator for 6 days, then molting was assessed visually using an inverted microscope. Molting was determined in each well by counting the presence of fourth stage larvae (L4s) and empty casts of L3s.
The percent inhibition of molting was calculated based on the number of treated larvae that were able to molt in comparison to the number of control larvae that had successfully molted. IC50 values were calculated using GraphPad Prism v6.0
(http://www.graphpad.com). See Bullman et al., PLoS Negl. Trop.
Adult Brugia malayi transplantation in vivo model procedure.
Gerbils (Meriones unguiculatus) were infected by transplantation of 10 male and 10 female adult Brugia malayi into the peritoneal cavity. Gerbils were acclimated for 7 days prior to treatment. Animals were dosed based on their body weight prior to each dosing. Animals were administered their doses at the same time each day and receive standard rodent laboratory diet and water ad libitum. Gerbils were humanely euthanized at the conclusion of each study. Peritoneal counts of male and female adult B. malayi and visual condition of the peritoneum were recorded.
Brugia pahangi L3 injection in vivo model procedure 8.
Male gerbils (Meriones unguiculatus) approximately 6 weeks of age (50-60 g) were purchased from Charles Rivers (USA, Kingston K62 Gerbils) and infected by intraperitoneal injection with 200 Brugia pahangi third-stage larvae (L3) per animal
(Filariatech, Inc., Athens, GA). Gerbils were housed with no more than 5 animals per cage and maintained 9 months prior to treatment. All gerbils were dosed in accordance with their body weight determined prior to each dosing. Animals were […]

B. malayi/pahangi worms = test: ex vivo B. malayi/pahangi assay; assay type: cell-based; settings: short (<7 days) exposure of worms
[2] = system: G2/M arrest (functional indicator of interaction with mammalian tubulin); test: mammalian G2/M arrest assay; assay type: cell-based; settings: Table 1; read-out: G2/M arrest IC50
Procedure: as §1
Similarly, changing the point of attachment on the benzoxaborole core from 6- to 5- to afford 8d was also accompanied by increased potency in both the O. volvulus and G2/M arrest assays.

[3] = 100 mg/kg × 28 days, PO (suspension)
[4] = 300 mg/kg × 7 days, SC (suspension)

SMILES	adult worm reduction (Litomosoides sigmodontis; [3])	animals with no worms (Litomosoides sigmodontis; [3]) [%]	adult worm reduction (Litomosoides sigmodontis; [4]) [%/100%]	animals with no worms (Litomosoides sigmodontis; [4]) [%/100%]	IC50 [1] [nM]	killing of worms after short exposure (B. malayi/pahangi worms)	IC50 [2] [nM]	adult worm reduction (Litomosoides sigmodontis; 10 mg/kg × 5 days, SC) [%/100%]	animals with no worms (Litomosoides sigmodontis; 10 mg/kg × 5 days, SC) [%/100%]
COC(=O)Nc1nc2cc(C(=O)NCc3ccc4c(c3)B(O)OC4(C)C)ccc2[nH]1 [8a]	–135.3%	0	100	100	300	not effective in killing the worms	13000		
COC(=O)Nc1nc2cc(C(=O)c3ccc(F)cc3)ccc2[nH]1 [compound 1, Flubendazole, reference compound]					4	not effective in killing the worms	670	100	100
